Source: US8455543B2, “Platinum complexes and methods for inhibiting tumor cell proliferation” (University of South Florida, priority 2004, dated 2013)
Where two headings read alike, the source gives them in different places.

Experiments:
Test in all cases: MTT assay, growth inhibition of human tumor cells
Assay type in all cases: cell-based
Panc-1 = system: Panc-1
A549 = system: A549
Calu-1 = Calu-1 cells, 4 days treatment, several values = separate determinations
[1] = MTT assay, Panc-1 cells, 4 days treatment, several values = separate determinations
[2] = Homo sapiens, 96 h, MTT assay, Panc-1 cells, 4 days treatment, several values = separate determinations

Molecule: [Cis-Pt IV(NH3)2(Cl)2(NO2) (OP(-salicylate)(OH)O)] [JP6]
- IC50 (Panc-1): 5.5 µM

Molecule: cis-[Pt^IV(NH3)2Cl2NO2-salicylate] [CPA-19]
- IC50 (Panc-1): 20 µM
- IC50 (A549): 37 µM

Molecule: [Cis-Pt IV(NH3)2(Cl)2(NO2) (5-FU)] [JP3]
- IC50 (Panc-1; [1]): 2.6 µM

Molecule: NC(=O)NO [hydroxyurea, reference compound]
- IC50 (Panc-1; [2]): 1.3 µM
- IC50 (Calu-1; Homo sapiens, 96 h): > 250 µM

Molecule: Pt^IV(en) (HOHN—CO—NH2)(NO2) 5-FU [CPA-13]
- IC50 (Panc-1; [1]): 2.3 µM

Molecule: cis-[Pt^IV(NH3)2Cl2NO2-5FU [CPA-14]
- IC50 (Calu-1): 13 µM

Molecule: O=c1[nH]cc(F)c(=O)[nH]1 [5-FU, 5-fluorouracil, reference compound]
- IC50 (Panc-1; [2]): 5 µM
- IC50 (Calu-1; Homo sapiens, 96 h): 250 µM
